From patent US20070104644A1, “Inhibitor imaging agents” (priority 2003, published 2007)

Tested on: Lewis lung carcinoma (LLC) tumour
Test: Biodistribution in LLC tumour model in vivo
Parameters: species or system C57BL/6 mice
Protocol: 1×10^6 Lewis lung carcinoma (LLC) cells are injected subcutaneously into right inner thigh of C57BL/6 mice. Tumours were allowed to grow for 15 days prior to biodistribution being carried out.
Biodistribution studies were performed in the LLC tumour model.
Biodistribution was performed in the LLC tumour model of Example 23 with Compounds 46B and 48B.

| % ID Urinary (urinary excretion), mean (5 min post injection) [% ID] | % ID/g Tumour, mean (5 min post injection) [% ID/g] | Tumour/Blood, mean (5 min post injection) | Tumour/Heart, mean (5 min post injection) | Tumour/Lung, mean (5 min post injection) | Tumour/Muscle, mean (5 min post injection) | % ID Urinary (urinary excretion), mean (30 min post injection) [% ID] | % ID/g Tumour, mean (30 min post injection) [% ID/g] | Tumour/Blood, mean (30 min post injection) | Tumour/Heart, mean (30 min post injection) | Tumour/Lung, mean (30 min post injection) | Tumour/Muscle, mean (30 min post injection) | % ID Urinary (urinary excretion), mean (60 min post injection) [% ID] | % ID/g Tumour, mean (60 min post injection) [% ID/g] | Tumour/Blood, mean (60 min post injection) | Tumour/Heart, mean (60 min post injection) | Tumour/Lung, mean (60 min post injection) | Tumour/Muscle, mean (60 min post injection) | % ID Urinary (urinary excretion), mean (120 min post injection) [% ID] | % ID/g Tumour, mean (120 min post injection) [% ID/g] | SMILES | other results |
| --- | --- | --- | --- | --- | --- | --- | --- | --- | --- | --- | --- | --- | --- | --- | --- | --- | --- | --- | --- | --- | --- |
| 6.37 | 2.08 | 0.13 | 0.29 | 0.33 | 1.22 | 40.17 | 2.14 | 0.30 | 0.90 | 0.73 | 2.19 | 68.53 | 1.06 | 0.45 | 1.25 | 0.83 | 2.27 | 78.75 | 0.42 | NC(=O)[C@H](Cc1ccc(O)c([123I])c1)NC(=O)COCC(=O)NCCOCCOCCOCCNC(=O)[C@H](CCC(=O)O)NC(=O)[C@H](CCC(=O)O)NC(=O)[C@H](CCC(=O)O)NC(=O)[C@H](CCC(=O)O)NC(=O)[C@H](CCC(=O)O)NC(=O)CCN(C1(C(=O)NO)CCCC1)S(=O)(=O)c1ccc(Oc2ccc(F)cc2)cc1 [Compound 38A] | Tumour/Blood, mean (120 min post injection): 0.52; Tumour/Heart, mean (120 min post injection): 1.14; Tumour/Lung, mean (120 min post injection): 0.64; Tumour/Muscle, mean (120 min post injection): 1.82 |
| 6.89 | 2.26 | 0.26 | 0.47 | 0.26 | 1.46 | 16.98 | 2.67 | 0.54 | 1.24 | 0.57 | 3.22 | 31.69 | 2.35 | 0.66 | 1.49 | 0.74 | 3.52 | 48.07 | 1.29 | NCCCC[C@H](NC(=O)CCN(C1(C(=O)NO)CCCC1)S(=O)(=O)c1ccc(Oc2ccc(F)cc2)cc1)C(=O)N[C@@H](CCCCN)C(=O)N[C@@H](CCCCN)C(=O)N[C@@H](CCCCN)C(=O)N[C@@H](CCCCN)C(=O)NCCOCCOCCOCCNC(=O)COCC(=O)N[C@@H](Cc1ccc(O)c([123I])c1)C(N)=O [Compound 42A] | Tumour/Blood, mean (120 min post injection): 0.56; Tumour/Heart, mean (120 min post injection): 1.49; Tumour/Lung, mean (120 min post injection): 0.60; Tumour/Muscle, mean (120 min post injection): 2.51 |
| 3.94 | 1.14 | 0.41 | 0.86 | 0.49 | 1.91 | 5.85 | 0.5 | 0.38 | 0.870 | 0.54 | 1.57 | 6.36 | 0.66 | 0.42 | 0.940 | 0.69 | 2.3 | 9.42 | 0.53 | NC(=O)[C@H](Cc1ccc(O)c([123I])c1)NC(=O)CCOCCOCCOCCOCCOCCOCCOCCOCCOCCOCCOCCNC(=O)CCN(C1(C(=O)NO)CCCC1)S(=O)(=O)c1ccc(Oc2ccc(F)cc2)cc1 [Compound 44A] | Tumour/Blood, mean (120 min post injection): 0.43; Tumour/Heart, mean (120 min post injection): 1.060; Tumour/Lung, mean (120 min post injection): 0.72; Tumour/Muscle, mean (120 min post injection): 2.8 |

Second part, the compound before the results:

| SMILES | % ID Urinary (urinary excretion), mean (5 min post injection) [% ID] | % ID/g Tumour, mean (5 min post injection) [% ID/g] | Tumour/Blood, mean (5 min post injection) | Tumour/Heart, mean (5 min post injection) | Tumour/Lung, mean (5 min post injection) | Tumour/Muscle, mean (5 min post injection) | % ID Urinary (urinary excretion), mean (30 min post injection) [% ID] | % ID/g Tumour, mean (30 min post injection) [% ID/g] | Tumour/Blood, mean (30 min post injection) | Tumour/Heart, mean (30 min post injection) | Tumour/Lung, mean (30 min post injection) | Tumour/Muscle, mean (30 min post injection) | % ID Urinary (urinary excretion), mean (60 min post injection) [% ID] | % ID/g Tumour, mean (60 min post injection) [% ID/g] | Tumour/Blood, mean (60 min post injection) | Tumour/Heart, mean (60 min post injection) | Tumour/Lung, mean (60 min post injection) | Tumour/Muscle, mean (60 min post injection) | % ID Urinary (urinary excretion), mean (120 min post injection) [% ID] | % ID/g Tumour, mean (120 min post injection) [% ID/g] | other results |
| --- | --- | --- | --- | --- | --- | --- | --- | --- | --- | --- | --- | --- | --- | --- | --- | --- | --- | --- | --- | --- | --- |
| NC(=O)[C@H](Cc1ccc(O)c([123I])c1)NC(=O)COCC(=O)NCCOCCOCCOCCNC(=O)CCN(C1(C(=O)NO)CCCC1)S(=O)(=O)c1ccc(Oc2ccc(F)cc2)cc1 [Compound 20A] |  |  |  |  |  |  |  |  |  |  |  |  |  |  |  |  |  |  |  |  | Decrease in HBS (hepatobiliary) excretion compared to Compound 24A: 10%; Increase in urinary excretion compared to Compound 24A: 10%; Tumour retention compared to Compound 24A: slightly increased; Uptake into the tumour compared to Compound 24A: slightly lower |
| NC(=O)[C@H](Cc1ccc(O)c([123I])c1)NC(=O)[C@H](CCC(=O)O)NC(=O)[C@H](CCC(=O)O)NC(=O)[C@H](CCC(=O)O)NC(=O)[C@H](CCC(=O)O)NC(=O)[C@H](CCC(=O)O)NC(=O)CCN(C1(C(=O)NO)CCCC1)S(=O)(=O)c1ccc(Oc2ccc(F)cc2)cc1 [Compound 21A] | 5.62 | 1.64 | 0.13 | 0.30 | 0.28 | 0.92 | 26.73 | 2.20 | 0.33 | 0.83 | 0.65 | 1.72 | 39.99 | 1.97 | 0.40 | 1.14 | 0.66 | 2.30 | 52.08 | 1.60 | Tumour/Blood, mean (120 min post injection): 0.37; Tumour/Heart, mean (120 min post injection): 0.91; Tumour/Lung, mean (120 min post injection): 0.61; Tumour/Muscle, mean (120 min post injection): 2.44 |
